Experimental data from US20240325550A1, “Therapeutic Compounds for Inhibiting and Reducing the Expression of Cell Surface Proteins” (KIST (Korea Institute of Science and Technology), priority 2023, published 2024).
{DBCO} = dibenzocyclooctyne group for click conjugation; d = 2'-deoxy (DNA); r = 2'-OH (RNA)

Tests used:
[1] = biological target: T1, PD-L1 expressed by CT26.CL25 cells (Mus musculus, UniProt Q9EP73); experiment: Binding of Cy5.5-labeled conjugate to PD-L1 on CT26.CL25 cells (fluorescence microscopy); conditions: 200 nM, 30 minutes at 4° C., no antibody pre-treatment
T1 construct: PD-L1 expressed by CT26.CL25 cells; endogenous in cells; host or cells: CT26.CL25 cells
Description: We tested whether the PD-L1 binding peptide-siRNA conjugate of Example 1 was able to specifically bind PD-L1 expressed by CT26.CL25 cells by incubating the PD-L1 binding peptide-siRNA conjugate of Example 1 with CT26.CL25 cells that either had, or had not, been pre-treated with an anti-PD-L1 antibody. As a control, CT26.CL25 cells were incubated with the unconjugated anti-PD-L1 siRNA of Example 1.
Here, 2 ml of CT26.CL25 cells (at 5×10^6 cells/ml) were seeded into each of four dishes. 24 hours after seeding, and one hour before treatment with the conjugate of Example 1, one dish was pre-treated with 1 ml of anti-PD-L1 antibody (InVivoMAb anti-mouse PD-L1, BioXCell Cat. #BE0101) at 1 mg/ml. After incubation with the antibody, the pre-treated cells were incubated with 1 ml (200 nM) of the conjugate of Example 1 for 30 minutes at 4° C. At the same time, a dish that had not been pre-treated was similarly incubated with the conjugate of Example 1, and another dish that had not been pre-treated was similarly incubated with the unconjugated anti-PD-L1 siRNA of Example 1.
Cells were then fixated with 4% paraformaldehyde (PFA) for 10 min, then washed twice with DPBS. Nuclei were then stained using Hoechst 33342 (blue of FIG. 2) and the cells were examined for Cy5.5 fluorescence (red of FIG. 2).

B16F10 cells = experiment: Internalization by B16F10 cells (Cy5.5 fluorescence microscopy); assay type: cell-based; conditions: 18 hours and 24 hours of incubation
Description: B16F10 cells were also incubated with either the PD-L1 binding peptide-siRNA conjugate of Example 1 or the unconjugated Cy5.5-labeled siRNA of Example 1 and similarly fixated after 18 hours and 24 hours of incubation.
(§1) Nuclei were stained using Hoechst 33342 (blue of FIGS. 3 and 4) and the cells were examined for Cy5.5 fluorescence (red of FIGS. 3 and 4).

CT26.CL25 cells = experiment: Internalization by CT26.CL25 cells (Cy5.5 fluorescence microscopy); assay type: cell-based; conditions: 9 hours, 18 hours and 24 hours of incubation
Description: CT26.CL25 cells were incubated, as described in Example 2, with either the PD-L1 binding peptide-siRNA conjugate of Example 1 or the unconjugated Cy5.5-labeled siRNA of Example 1. After 9 hours, 18 hours, and 24 hours of incubation, cells were then fixated with 4% paraformaldehyde (PFA) for 10 min and washed twice with DPBS.
as §1

[2] = biological target: T2, EGFR expressed by A549 cells (Homo sapiens, UniProt P00533); experiment: Binding of YOYO-1-stained conjugate to EGFR on A549 cells (microscopy); conditions: 200 nM, 30 minutes
T2 construct: EGFR expressed by A549 cells; endogenous in cells; host or cells: A549 cells
Description: We tested whether the EGFR binding peptide-siRNA conjugate of Example 6 was able to specifically bind EGFR expressed by A549 cells by incubating the EGFR binding peptide-siRNA conjugate of Example 6 with A549 cells. As a control, A549 cells were incubated with the unconjugated anti-EGFR siRNA of Example 6.
A549 cells were treated with 200 nM of either the EGFR-binding peptide-conjugated siRNA of Example 6 or the unconjugated EGFR siRNA of Example 6, each stained with YOYO-1, a nucleic acid staining dye.
After 30 minutes, cells were then fixated with 4% paraformaldehyde (PFA) for 10 minutes, then washed twice with DPBS. Nuclei were then stained using Hoechst 33342 and the cells were examined for YOYO-1 staining.

T1 sequence (Q9EP73 19-290): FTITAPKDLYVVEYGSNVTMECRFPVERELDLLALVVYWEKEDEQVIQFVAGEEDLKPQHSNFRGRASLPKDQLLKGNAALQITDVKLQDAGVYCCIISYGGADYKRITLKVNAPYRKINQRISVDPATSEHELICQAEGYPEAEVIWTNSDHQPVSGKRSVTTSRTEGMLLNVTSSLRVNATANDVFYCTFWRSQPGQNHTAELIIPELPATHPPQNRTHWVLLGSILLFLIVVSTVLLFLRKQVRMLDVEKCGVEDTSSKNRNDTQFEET

unconjugated Cy5.5-labeled siRNA of Example 1: anti-PD-L1 siRNA: sense GACUCAAGAUGGAACCUGAdTdT-[DBCO] (SEQ ID NO:12), antisense dTdTCUGAGUUCUACCUUGGACU-Cy5.5 (SEQ ID NO:13) (sense GACUCAAGAUGGAACCUGATT; antisense TTCUGAGUUCUACCUUGGACU; dTdT overhangs, DBCO, Cy5.5 label, chemistry not fully specified; one strand is listed 3' to 5') [reference compound]
Cy5.5 fluorescence on cells (binding to cell-surface PD-L1) [1]: very low levels of Cy5.5 fluorescence | Cy5.5 fluorescence on cells (binding to cell-surface PD-L1) ([1]; listed as unconjugated Cy5.5-labeled siRNA): little to no Cy5.5 fluorescence | Internalization (Cy5.5 fluorescence) (B16F10 cells): significantly less Cy5.5 fluorescence | Internalization (Cy5.5 fluorescence) (CT26.CL25 cells): significantly less Cy5.5 fluorescence

siRNA: anti-EGFR siRNA: sense AUAGGCAUUGGUGAAUUUAAAGAdCdA-[DBCO] (SEQ ID NO:120), antisense UGUCUUUAAAUUCACCAAUGCCUAUGC (SEQ ID NO:121) (sense AUAGGCAUUGGUGAAUUUAAAGACA; sense: sugars from the 5' end r23 d2, 3' {DBCO}, backbone not given here; antisense: RNA, backbone not given here; sense 3' DBCO clicked to azide EGFR-binding peptide) [reference compound]
YOYO-1 staining on cells (binding to EGFR) [2]: no YOYO-1 staining
